Laboratory results taken from PMC6278295, “Shape Effects of Peptide Amphiphile Micelles for Targeting Monocytes” (Molecules, 2018).

Key:
[1] = Circular dichroism secondary structure; type: physicochemical; settings: CD, 100 µM, 190-240 nm, five scans averaged, Provencher & Glockner Method
Experimental: Circular dichroism (CD) spectroscopy was carried out using a Jasco J-815 spectropolarimeter (Easton, MD, USA). PAM solutions (100 µM) were analyzed in 0.2 mm path-length cuvettes. Measurements were made at 0.5 nm intervals from 190 nm to 240 nm with 1 s intervals and 1 nm bandwidth. Data from five scans were averaged to create the CD spectra, and the secondary structures were quantified using the Provencher & Glockner Method.

murine monocytes = test: Chemotaxis assay (transwell, migrated monocyte DNA); type: cell-based; settings: 4 h, 8 µm pore transwell, Pico Green, n = 4
Experimental: To determine the chemoattractant properties of PAMs, 50,000 monocytes in 20 µL were suspended on a 24-well transwell plate with 8 µm pores. After 4 h, the number of cells that migrated to the bottom well containing 1 µM, 10 µM, 100 µM, 1000 µM PAMs, peptides, or PBS was quantified by lysing the cells via sonication, and measuring DNA using Quant-it Pico Green (Invitrogen, Carlsbad, CA, USA).

Secondary Structure, Alpha Helix [1] [%]	Secondary Structure, Beta Sheet [1] [%]	Secondary Structure, Random Coil [1] [%]	Sequence	Amount of migrated monocyte DNA at 1000 µM (murine monocytes) [ng/mL]
9.2	36.2	54.5	YNFTNRKISVQRLASYRRITSSK [MCP-1 Peptide, MCP-1 peptide (residues 13–35) modified with a cysteine at the N-terminus]	78.98 ± 0.8
8.6	43.9	47.5	YNSLVFRIRNSTQRKYRASIST [Scrambled MCP-1 Peptide, scrambled version of the MCP-1 peptide designed to mimic its secondary structure]	
